Measured values taken from ChEMBL document CHEMBL4130419, “Novel chemotypes targeting tubulin at the colchicine binding site and unbiasing P-glycoprotein” (Eur J Med Chem, 2017).

How the values were obtained:
[1] = tested on: MCF7; experiment: Antiproliferative activity against human MCF7 cells after 72 hrs by MTT assay; format: functional, cell-based; conditions: MCF7, 72 h
[2] = tested on: HepG2; experiment: Antiproliferative activity against human HepG2 cells after 72 hrs by MTT assay; format: functional, cell-based; conditions: HepG2, 72 h
[3] = tested on: HeLa; experiment: Antiproliferative activity against human HeLa cells after 72 hrs by MTT assay; format: functional, cell-based
[4] = tested on: SH-SY5Y; experiment: Antiproliferative activity against human SH-SY5Y cells after 72 hrs by MTT assay; format: functional, cell-based
[5] = species on record: Sus scrofa; experiment: Inhibition of tubulin polymerization in porcine brain assessed as disruption of microtubule organization after 1 hr by fluorescence polarization assay
[6] = Apparent permeability from apical to basolateral side in MDCK2-MDR1 cells at 75 uM after 2 hrs UV-visible spectroscopy; format: ADME, cell-based, Canis lupus familiaris; conditions: dog, MDCK-MDR1
[7] = Apparent permeability from basolateral to apical side in MDCK2-MDR1 cells at 75 uM after 2 hrs UV-visible spectroscopy; format: ADME, cell-based, Canis lupus familiaris; conditions: dog, MDCK-MDR1
[8] = Efflux ratio of apparent permeability from basolateral to apical over apical to basolateral side in MDCK2-MDR1 cells at 75 uM after 2 hrs by UV-visible spectroscopy; format: ADME, cell-based, Canis lupus familiaris; conditions: dog, MDCK-MDR1

IC50 [1] [µM] | IC50 [2] [µM] | IC50 [3] [µM] | IC50 [4] [µM] | inhibition [5] | Papp A→B at 2 h, 75 µM [6] [×10⁻⁶ cm/s] | Papp B→A at 2 h, 75 µM [7] [×10⁻⁶ cm/s] | efflux ratio at 2 h, 75 µM [8] | Compound
10 | 96.9 | 74.1 | 37 | Dose-dependent effect | – | – | – | CCC(c1nnc(SCC(=O)c2[nH]c(C)c(C(C)=O)c2C)n1Cc1ccccc1)N(C)C (configuration not stated)
9.2 | > 100 | 95.5 | 100 | Dose-dependent effect | – | – | – | CCc1cccc(NC(=O)c2cnn3c(C(F)F)cc(-c4ccc(C)cc4)nc23)c1
26 | > 100 | 36.3 | > 100 | Dose-dependent effect | – | – | – | CCOC(=O)c1c(NC(=O)C2=C(C)N=C(S)NC2c2ccc(CC)cc2)sc(C)c1C (configuration not stated)
5.7 | 72.4 | 36.3 | 25.1 | Dose-dependent effect | – | – | – | COc1cc2c(=O)c(C(=O)c3ccc(C)c(C)c3)cn(Cc3ccc(F)cc3)c2cc1OC
66 | 79.4 | 45.7 | 34.7 | Dose-dependent effect | – | – | – | O=C(CSc1nnc(-c2c[nH]c3ccccc23)n1CC1CCCO1)c1ccc(Cl)s1 (configuration not stated)
11 | 52.5 | 45.7 | 11.5 | Dose-dependent effect | 45 | 82 | 1.82 | NC(=O)C1CCN(c2nc(CSc3ccccc3)nc3sc4c(c23)CCCC4)CC1
93 | > 100 | 61.6 | > 100 | Dose-dependent effect | – | – | – | CCOc1ccc(-n2c(SCC(=O)N3CCOCC3)nnc2-c2cccc(C)c2)cc1
13 | 38.9 | 1.6 | 0.9 | Dose-dependent effect | – | – | – | Cc1ccc(NC(=O)Cn2c(C(F)(F)F)nc3ccccc32)c(-c2nc(C3CC3)n[nH]2)c1
2.2 | > 100 | 74 | 40 | Dose-dependent effect | 18 | 21 | 1.16 | COc1ccc(-c2cc(C(F)F)n3ncc(C(=O)Nc4cc(Cl)ccc4O)c3n2)cc1
67.2 | 33.1 | 16 | 12.7 | Dose-dependent effect | 22 | 13 | 0.59 | Cc1cccc(-c2nnc(SCC(=O)c3ccc(O)cc3O)n2-c2ccccc2)c1
6 | 100 | 95.5 | 57.5 | Dose-dependent effect | – | – | – | CSc1ccccc1NC(=O)c1cnn2c(C(F)F)cc(-c3ccc(C)cc3)nc12
26 | 32.4 | 22.4 | 17.4 | Dose-dependent effect | 90 | 92 | 1.02 | O=C(c1c[nH]c2ccccc12)C(NCc1ccc2c(c1)OCO2)c1ccccc1 (configuration not stated)
5.2 | 18.3 | 21 | 22.5 | Dose-dependent effect | 63 | 55 | 0.87 | CCCCN1C(=O)c2[nH]nc(-c3ccccc3O)c2C1c1ccc(OCC)cc1 (configuration not stated)
37.1 | > 100 | 44 | 11.7 | Dose-dependent effect | 39 | 47 | 1.2 | Cn1cc(SCC(=O)N2N=C(c3cccs3)CC2c2ccc(F)cc2)c2ccccc21 (configuration not stated)
54 | 48.9 | 50.1 | 51.3 | Dose-dependent effect | – | – | – | Cc1cc(C)c(O)c(-c2n[nH]c3c2C(c2ccccc2)N(CCCO)C3=O)c1 (configuration not stated)
29 | > 100 | 52.5 | > 100 | Dose-dependent effect | – | – | – | O=C(Cn1cc(CNC2(c3ccccc3F)CCCC2)c2ccccc21)NC1CC1

IC50 [1] [µM] | IC50 [2] [µM] | IC50 [3] [µM] | IC50 [4] [µM] | inhibition [5] | Papp A→B at 2 h, 75 µM [6] [×10⁻⁶ cm/s] | Papp B→A at 2 h, 75 µM [7] [×10⁻⁶ cm/s] | efflux ratio at 2 h, 75 µM [8] | Compound
66 | 91.2 | 81.7 | 67.6 | Dose-dependent effect | – | – | – | Cc1cccc(-n2ccnc2SCC(=O)c2ccc3c(c2)CCC(=O)N3)c1
9 | > 100 | > 100 | 67.5 | Dose-dependent effect | – | – | – | CCOC(=O)c1c(NC(=O)C2CC(=O)Nc3ccccc32)sc(C)c1C (configuration not stated)
23 | 77.6 | 45.7 | > 100 | Dose-dependent effect | – | – | – | COc1ccc(NS(=O)(=O)c2ccc3c(c2)N(C(C)=O)CC(C)O3)cc1Cl (configuration not stated)
8 | > 100 | 23.9 | 43.7 | Dose-dependent effect | – | – | – | Cc1n[nH]c(O)c1C(c1cccc(OCc2ccc(F)cc2)c1)c1c(O)n[nH]c1C
1.4 | > 100 | 19 | 66 | Dose-dependent effect | – | – | – | COc1ccc(-c2nc3ccccc3c3nnc(SCc4ncc(C)c(OC)c4C)n23)cc1
25.2 | > 100 | 55 | 10.3 | Dose-dependent effect | – | – | – | CCCSc1nnc(N2C(=O)C(O)=C(C(=O)c3ccco3)C2c2ccccc2F)s1 (configuration not stated)
25 | > 100 | 10.7 | 70.8 | Dose-dependent effect | – | – | – | Cc1cccc(-n2nc(C)c3c2NC2=C(C(=O)CC(C)(C)C2)C3c2ccc(O)cc2)c1 (configuration not stated)
17.4 | 100 | 54.9 | 38 | Dose-dependent effect | – | – | – | CCOC(=O)C1CCCN(C(=O)c2cc(-c3ccc(Cl)cc3)nc3ccccc23)C1 (configuration not stated)
32 | > 100 | 66 | > 100 | Dose-dependent effect | – | – | – | C=CCOc1ccccc1CN(C(=O)CN1CCNC(=O)C1)c1ccc2c(c1)OCO2
7 | 35.5 | 20.8 | 8.7 | Dose-dependent effect | – | – | – | COc1ccc(C2CCCN2CC(=O)Nc2ccccc2-c2ccccc2)cc1 (configuration not stated)
32 | 14.1 | 63.2 | 3.7 | Dose-dependent effect | 76 | 47 | 0.62 | CCOC(=O)c1c(C)[nH]c(C)c1C(=O)CSC1=Nc2ccccc2C2CC=NN12 (configuration not stated)
9 | 63.9 | 37.1 | 52.5 | Dose-dependent effect | – | – | – | COc1ccc(-n2c(SCC(=O)c3ccc(OC(F)F)cc3)nc3ccccc32)cc1
7 | > 100 | 15.1 | 67.6 | Dose-dependent effect | – | – | – | COc1ccc(C)cc1NC(=O)c1cnn2c(C(F)F)cc(-c3ccc(C)cc3)nc12
68 | > 100 | 83 | 72.4 | Dose-dependent effect | – | – | – | Cc1ccc(-n2c(SCC(=O)N3CC(=O)Nc4ccccc43)nnc2-c2cccc(C)c2)cc1
66 | 74.1 | 63.1 | 61.7 | Dose-dependent effect | – | – | – | CC(=O)Nc1ccc(C2=CC(c3ccc(Cl)cc3Cl)n3nc(CCCO)nc3N2)cc1 (configuration not stated)

Compound | IC50 [1] [µM] | IC50 [2] [µM] | IC50 [3] [µM] | IC50 [4] [µM] | inhibition [5] | Papp A→B at 2 h, 75 µM [6] [×10⁻⁶ cm/s] | Papp B→A at 2 h, 75 µM [7] [×10⁻⁶ cm/s] | efflux ratio at 2 h, 75 µM [8]
COc1cc2c(c(OC)c1OC)-c1ccc(OC)c(=O)cc1[C@@H](NC(C)=O)CC2 [COLCHICINE] | – | 0.042 | – | – | – | – | – | –
